pEC50: −log10 of the molar value.

Here are results for 15 compounds from US11560372B2, “Heterocyclic compounds useful as modulators of acetylcholine receptors” (TAKEDA PHARMACEUTICAL COMPANY LIMITED, priority 2017, dated 2023).

Data set [1] deals with T1, human M1 receptor (hCHRM1) (Homo sapiens, UniProt P11229).
T1 construct: expressed in transfected cells
T1 sequence (P11229 1-460): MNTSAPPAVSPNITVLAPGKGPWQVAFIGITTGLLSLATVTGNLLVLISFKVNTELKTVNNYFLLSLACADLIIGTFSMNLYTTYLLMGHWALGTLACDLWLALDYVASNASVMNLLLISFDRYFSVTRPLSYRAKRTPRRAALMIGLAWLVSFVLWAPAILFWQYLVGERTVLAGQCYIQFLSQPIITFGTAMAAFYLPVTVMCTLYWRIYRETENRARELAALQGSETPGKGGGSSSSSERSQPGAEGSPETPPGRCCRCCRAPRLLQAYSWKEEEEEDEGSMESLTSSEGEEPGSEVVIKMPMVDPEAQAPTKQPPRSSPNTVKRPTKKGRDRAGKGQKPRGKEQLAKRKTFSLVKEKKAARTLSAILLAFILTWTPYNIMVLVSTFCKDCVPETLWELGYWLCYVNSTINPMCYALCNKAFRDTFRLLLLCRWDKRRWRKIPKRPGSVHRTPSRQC
Briefly: Measurement of M1 receptor positive allosteric modulator (M1PAM) activity, calcium fluorescence in CHO-K1 cells. The conditions noted are these: for activity (%) at 10 μM: 10 μM test compound, 100% = acetylcholine final concentration 1 μM, 0% = DMSO; for pEC50: inflection point of concentration-dependent curve, in the presence of acetylcholine at EC20 concentration (final 0.8-1.0 nM), read-out: IP value. It counts as cell-based. How it is done: Measurement of M1 Receptor Positive Allosteric Modulator (M1PAM) Activity
The activity of a test compound in the presence of acetylcholine at EC20 concentration (final concentration 0.8-1.0 nM), which affords an action corresponding to about 20% of the maximum activity, was measured as PAM activity. The method is as follows. CHO-K1 cells stably expressing a human M1 receptor (hCHRM1) were plated on a 384-well black clear bottom plate (BD Falcon) at 5,000 cells/well, and cultured in an incubator at 37° C., 5% CO2 for 1 day. The medium in the cell plate was removed, and assay buffer A containing calcium indicator (Recording medium (DOJINDO LABORATORIES), 0.1% BSA (Wako Pure Chemical Industries, Ltd.), 2.5 μg/mL Fluo-4 AM (DOJINDO LABORATORIES), 0.08% Pluronic F127 (DOJINDO LABORATORIES), 1.25 mM probenecid (DOJINDO LABORATORIES)) was added at 30 μL/well. The cells were left standing in the incubator at 37° C., 5% CO2 for 30 min, and further left standing at room temperature for 30 min. A test compound prepared by diluting with assay buffer B (HBSS (Invitrogen), 20 mM HEPES (Invitrogen), 0.1% BSA) containing 3.2-4.0 nM acetylcholine was added at 10 μL/well, and the fluorescence was measured by FDSS/pCELL (Hamamatsu Photonics K.K.) for 1 min every for 1 second. With the definition that the amount of change in the fluorescence on addition of acetylcholine (final concentration 1 μM) is 100% and that on addition of DMSO instead of a test compound is 0%, the activity (%) of the test compound was calculated, and the inflection point in the concentration-dependent curve of the test compound was calculated as IP values.

Data set [2] has as its target T2, MDR1 (Homo sapiens, UniProt P08183).
T2 construct: expressed in transfected cells
The data set can be described thus: MDR1 membrane permeability test. It counts as in vitro ADME. The conditions noted are these: pH 7.4, efflux ratio (ER), Papp B to A / A to B, human MDR1-expressing LLC-PK1 cells, read-out: MDR1 substrate screening 1 μM (MDRSUB1)/Ratio (NUMBER). How it is done: MDR1 Membrane Permeability Test
When MDR1 is expressed in excess in LLC-PK1 cell, which is a polar cell, MDR1 is localized in apical membrane (A), thus promoting transcellular transport from the basement membrane side (B) toward direction A. When a ratio to the transcellular transport in the opposite direction is taken and a ratio to a control cell in which a mock vector has been introduced is further taken, an efflux ratio of MDR1 to simple diffusion (corrected efflux ratio) is calculated. Similarly, when a brain/plasma concentration ratio in Mdr1(−/−) mouse is divided by a brain/plasma concentration ratio in wild-type mouse, an efflux ratio of Mdr1 to simple diffusion in BBB (Kp, brain ratio, higher value means lower central nervous system permeability) is calculated. Adachi Y. et al. (Reference 1) has reported a positive correlation between corrected efflux ratio and Kp, brain ratio (FIG. 5(C)), and efflux ratio in MDR1 expressing cell and Kp, brain ratio (FIG. 5(B)).
To confirm the central nervous system permeability of the compounds of the present invention, a MDR1 membrane permeability test was performed by the following method.
Human MDR1-expressing LLC-PK1 cells were cultured according to the report of Takeuchi et al. (Reference 2). Human MDR1-expressing LLC-PK1 cells were cultured in 10% fetal bovine serum (Invitrogen), 500 μg/ml G418 (Invitrogen), 150 ng/ml colchicine-containing M199 medium (Invitrogen) under 5% CO2 conditions at 37° C.
Transcellular transport was performed according to the report of Sugimoto et al. (Reference 3). The cells were cultured for 3 days on HTS Transwell (registered trademark) 96 well permeable support (pore size 0.4 μm, 0.143 cm^2 surface area, Corning Life Sciences) having polyethylene terephthalate membrane on which the cells had been seeded at 3.45×10^4 cells/well. After preincubation in M199 medium (containing 10 mmol/L HEPES, 1% BSA, pH 7.4) for 30 min, a drug solution (10 μmol/L digoxin, 200 μmol/L LY, […]) dissolved in M199 medium was added to the apical side or basolateral side of the Transwell by 75 or 250 μL each and the cells were cultured under 5% CO2 conditions at 37° C. After 1 hr, the sample was collected from the side opposite to the side where the drug solution was added, and the concentration of the test compound was measured by LC-MS/MS. As an internal standard substance, 100 ng/mL alprenolol and diclofenac were used. The analysis conditions were as follows.
Papp, A to B and Papp, B to A (apparent permeability) were calculated from the formula (1), and the efflux ratio (ER) was calculated from the formula (2).

T2 sequence (P08183 whole entry): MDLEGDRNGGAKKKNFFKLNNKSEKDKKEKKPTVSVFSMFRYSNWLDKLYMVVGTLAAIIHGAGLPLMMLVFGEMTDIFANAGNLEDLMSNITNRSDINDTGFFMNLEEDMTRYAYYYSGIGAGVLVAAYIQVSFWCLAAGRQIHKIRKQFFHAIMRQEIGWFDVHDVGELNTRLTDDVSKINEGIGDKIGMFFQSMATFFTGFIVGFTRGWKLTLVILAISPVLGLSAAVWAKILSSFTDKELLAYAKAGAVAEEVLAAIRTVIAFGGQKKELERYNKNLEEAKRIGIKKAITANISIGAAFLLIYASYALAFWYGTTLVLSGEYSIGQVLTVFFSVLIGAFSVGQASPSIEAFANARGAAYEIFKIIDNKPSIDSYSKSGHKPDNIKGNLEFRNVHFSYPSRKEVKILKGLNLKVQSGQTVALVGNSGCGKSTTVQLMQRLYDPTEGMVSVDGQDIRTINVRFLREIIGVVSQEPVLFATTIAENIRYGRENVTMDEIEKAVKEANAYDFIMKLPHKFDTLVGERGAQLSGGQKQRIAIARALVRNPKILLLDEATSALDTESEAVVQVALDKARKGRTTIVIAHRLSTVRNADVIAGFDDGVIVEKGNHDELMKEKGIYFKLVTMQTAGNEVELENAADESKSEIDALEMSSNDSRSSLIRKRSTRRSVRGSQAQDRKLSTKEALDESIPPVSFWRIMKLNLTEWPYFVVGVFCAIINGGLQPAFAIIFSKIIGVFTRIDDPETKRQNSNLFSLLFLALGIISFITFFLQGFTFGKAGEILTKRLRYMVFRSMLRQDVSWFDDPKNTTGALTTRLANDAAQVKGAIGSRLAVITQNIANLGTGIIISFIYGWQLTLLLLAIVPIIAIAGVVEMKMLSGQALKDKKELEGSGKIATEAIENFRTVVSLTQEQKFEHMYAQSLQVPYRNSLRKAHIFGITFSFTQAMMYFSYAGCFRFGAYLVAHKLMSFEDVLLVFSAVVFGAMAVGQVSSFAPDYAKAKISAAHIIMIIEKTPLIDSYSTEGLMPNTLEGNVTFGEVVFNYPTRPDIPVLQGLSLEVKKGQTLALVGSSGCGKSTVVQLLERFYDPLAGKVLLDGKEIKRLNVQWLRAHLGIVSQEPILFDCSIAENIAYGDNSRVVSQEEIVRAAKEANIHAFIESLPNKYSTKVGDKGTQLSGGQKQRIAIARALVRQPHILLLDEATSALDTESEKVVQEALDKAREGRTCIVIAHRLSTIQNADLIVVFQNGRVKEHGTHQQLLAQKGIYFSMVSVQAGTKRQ

On to `Cc1c(Cc2ccc(-c3ccn(C)n3)nc2)cc2c(=O)n([C@H]3CCOC[C@@H]3O)cnc2c1C` [Example 1, 1,5-anhydro-2,3-dideoxy-3-(7,8-dimethyl-6-((6-(1-methyl-1H-pyrazol-3-yl)pyridin-3-yl)methyl)-4-oxoquinazolin-3(4H)-yl)-L-threo-pentitol], for which, in data set [1], the “activity (%) at 10 μM” value is given as 101% and the pEC50 was 8.68. Moreover, the efflux ratio at 1 hr, 1 μM in data set [2] was determined as 4.7.
In the case of `Cc1cc(-c2ccc(Cc3cc4c(=O)n([C@H]5CCOC[C@@H]5O)cnc4c(C)c3C)cc2)cnn1` [Example 4, 1,5-anhydro-2,3-dideoxy-3-(7,8-dimethyl-6-(4-(6-methylpyridazin-4-yl)benzyl)-4.-oxoquinazolin-3(4H)-yl)-L-threo-pentitol], in data set [1], the “activity (%) at 10 μM” value was 101% and the pEC50 was 8.70. Further, in data set [2], the efflux ratio at 1 hr, 1 μM was 5.7.
As to `Cc1c(Cc2ccc(C(=O)NCC(C)(C)O)cc2)cc2c(=O)n([C@H]3CCOC[C@@H]3O)cnc2c1C` [Example 39, 1,5-anhydro-2,3-dideoxy-3-(6-(4-((2-hydroxy-2-methylpropyl)carbamoyl)benzyl)-7,8-dimethyl-4-oxoquinazolin-3 (4H)-yl)-L-threo-pentitol], in data set [1], the “activity (%) at 10 μM” value was found to be 112% and the pEC50 was 8.48.
In the case of `CNC(=O)c1ccc(Cc2cc3c(=O)n([C@H]4CCOC[C@@H]4O)cnc3cc2OC)cc1F` [Example 57, 1,5-anhydro-2,3-dideoxy-3-(6-(3-fluoro-4-(methylcarbamoyl)benzyl)-7-methoxy-4-oxoquinazolin-3 (4H)-yl)-L-threo-pentitol], the efflux ratio at 1 hr, 1 μM in data set [2] worked out at 16.
Take `COc1cc2ncn([C@H]3CCOC[C@@H]3O)c(=O)c2cc1Cc1ccc(-c2ccn(C)n2)nc1` [Example 63, 1,5-anhydro-2,3-dideoxy-3-(7-methoxy-6-((6-(1-methyl-1H-pyrazol-3-yl)pyridin-3-yl)methyl)-4-oxoquinazolin-3 (4H)-yl)-L-threo-pentitol]: in data set [2], the efflux ratio at 1 hr, 1 μM is 35.
As for `COc1cc2ncn([C@H]3CCOC[C@@H]3O)c(=O)c2cc1Cc1ccc(-c2cn(C)nn2)nc1` [Example 64, 1,5-anhydro-2,3-dideoxy-3-(7-methoxy-6-((6-(1-methyl-1H-1,2,3-triazol-4-yl)pyridin-3-yl)methyl)-4-oxoquinazolin-3 (4H)-yl)-L-threo-pentitol], the efflux ratio at 1 hr, 1 μM in data set [2] is 36.
With `Cc1c(Cc2ccc(C(=O)NCCF)c(F)c2)cc2c(=O)n([C@H]3CCOC[C@@H]3O)cnc2c1C` [Example 67, 1,5-anhydro-2,3-dideoxy-3-(6-(3-fluoro-4-((2-fluoroethyl)carbamoyl)benzyl)-7,8-dimethyl-4-oxoquinazolin-3 (4H)-yl)-L-threo-pentitol], the efflux ratio at 1 hr, 1 μM in data set [2] stood at 5.3.
As to `Cc1c(Cc2ccc(C(=O)NCCCS(C)(=O)=O)c(F)c2)cc2c(=O)n([C@H]3CCOC[C@@H]3O)cnc2c1C` [Example 70, 1,5-anhydro-2,3-dideoxy-3-(6-(3-fluoro-4-((3-(methylsulfonyl)propyl)-carbamoyl)benzyl)-7,8-dimethyl-4-oxoquinazolin-3 (4H)-yl)-L-threo-pentitol], the efflux ratio at 1 hr, 1 μM in data set [2] is 13.
For the compound `Cc1c(Cc2ccc(-c3cnn(C(C)(C)C)c3)nc2)cc2c(=O)n([C@H]3CCOC[C@@H]3O)cnc2c1C` [Example 72, 1,5-anhydro-3-(6-((6-(1-tert-butyl-1H-pyrazol-4-yl)pyridin-3-yl)methyl)-7,8-dimethyl-4-oxoquinazolin-3(4H)-yl)-2,3-dideoxy-L-threo-pentitol], the efflux ratio at 1 hr, 1 μM in data set [2] stood at 2.9.
Same read-out and setting: with `Cc1c(Cc2ccc(-c3cnn(CC(F)(F)F)c3)nc2)cc2c(=O)n([C@H]3CCOC[C@@H]3O)cnc2c1C` [Example 74, 1,5-anhydro-2,3-dideoxy-3-(7,8-dimethyl-4-oxo-6-((6-(1-(2,2,2-trifluoroethyl)-1H-pyrazol-4-yl)pyridin-3-yl)methyl)quinazolin-3(4H)-yl)-L-threo-pentitol] the figure was 7.1; with `Cc1c(Cc2ccc(C(=O)NCCN3CCCC3)c(F)c2)cc2c(=O)n([C@H]3CCOC[C@@H]3O)cnc2c1C` [Example 78, 1,5-anhydro-2,3-dideoxy-3-(6-(3-fluoro-4-((2-(pyrrolidin-1-yl)ethyl)carbamoyl)benzyl)-7,8-dimethyl-4-oxoquinazolin-3 (4H)-yl)-L-threo-pentitol], 56; with `Cc1c(Cc2ccc(-c3cnn(CC(=O)N(C)C)c3)nc2)cc2c(=O)n([C@H]3CCOC[C@@H]3O)cnc2c1C` [Example 82, 1,5-anhydro-2,3-dideoxy-3-(6-((6-(1-(2-(dimethylamino)-2-oxoethyl)-1H-pyrazol-4-yl)pyridin-3-yl)methyl)-7,8-dimethyl-4-oxoquinazolin-3(4H)-yl)-L-threo-pentitol], over 18.
Turning to `Cc1c(Cc2ccc(C(=O)N[C@H]3CCOC[C@@H]3O)c(F)c2)cc2c(=O)n([C@H]3CCOC[C@@H]3O)cnc2c1C` [Example 88, 2-fluoro-N-((3R,4S)-3-hydroxytetrahydro-2H-pyran-4-yl)-4-((3-((3R,4S)-3-hydroxytetrahydro-2H-pyran-4-yl)-7,8-dimethyl-4-oxo-3,4-dihydroquinazolin-6-yl)methyl)benzamide], in data set [2], the efflux ratio at 1 hr, 1 μM amounted to 16.
On the same count and under the same terms, as for `Cc1c(Cc2ccc(C(=O)NC3(C#N)CC3)c(F)c2)cc2c(=O)n([C@H]3CCOC[C@@H]3O)cnc2c1C` [Example 89, 1,5-anhydro-3-(6-(4-((1-cyanocyclopropyl)carbamoyl)-3-fluorobenzyl)-7,8-dimethyl-4-oxoquinazolin-3 (4H)-yl)-2,3-dideoxy-L-threo-pentitol], the figure is 16.
`CNC(=O)c1ccc(Cc2cc3c(=O)n([C@H]4CCOC[C@@H]4O)nnc3c(C)c2C)cn1` [Example 91, 1,5-anhydro-2,3-dideoxy-3-(7,8-dimethyl-6-((6-(methylcarbamoyl)pyridin-3-yl)methyl)-4-oxo-1,2,3-benzotriazin-3 (4H)-yl)-L-threo-pentitol]: in data set [2], the efflux ratio at 1 hr, 1 μM was 5.9.
